Earlier results as cited in US20220378803A1, “INJECTABLE COMPOSITIONS OF URSODEOXYCHOLIC ACID” (SHILPA MEDICARE LIMITED, priority 2019, published 2022).

For `C[C@H](CCC(=O)O)[C@H]1CC[C@H]2[C@@H]3[C@@H](O)C[C@@H]4C[C@H](O)CC[C@]4(C)[C@H]3CC[C@]12C` [UDCA, ursodeoxycholic acid], the solubility in water is given as “practically insoluble”.
